Data on 18 compounds can be found in PubChem BioAssay AID274 (DTP/NCI, 2004).

SMILES strings stand for the structures. “And” between values parts separate entries of the source, which are not always exact repeats. Equal entries are not always repeated. Inconclusive results and toxic doses are left out.

In the assay the test system is BDF1 mice, Lewis lung carcinoma iv, survival T/C. Kind of assay: NCI In Vivo Anticancer Drug Screen. Data for tumor model Lewis Lung Carcinoma (intravenous) in B6D2F1 (BDF1) mice. The note with it: endpoint: median survival time, higher = longer survival. The method, then:
The antitumor activity of compounds was measured in mice bearing transplantable tumors. Survival or tumor size were measured and the results are expressed as the measurement made in the treated group (T) divided by the measurement made in the vehicle treated control group (C). The tumor model used in this assay is Lewis Lung Carcinoma (intravenous) in B6D2F1 (BDF1) mice

Where [1] appears, read: dose: 12.5 mg/kg/injection, schedule: Q01DX009 (ip), vehicle: saline with Tween-80.
Setting [2] is: dose: 25.0 mg/kg/injection, schedule: Q01DX009 (ip), vehicle: saline with Tween-80.
Where [3] appears, read: dose: 50.0 mg/kg/injection, schedule: Q01DX009 (ip), vehicle: saline with Tween-80.
Setting [4] is: dose: 100.0 mg/kg/injection, schedule: Q01DX009 (ip), vehicle: saline with Tween-80.
Where [5] appears, read: dose: 200.0 mg/kg/injection, schedule: Q01DX009 (ip), vehicle: saline with Tween-80.
The mark [6] stands for this setting: dose: 400.0 mg/kg/injection, schedule: Q01DX009 (ip), vehicle: saline with Tween-80.
Setting [7] is: dose: 6.25 mg/kg/injection, schedule: Q01DX009 (ip), vehicle: Klucel (hydroxypropylcellulose) (HPC).
Where [8] appears, read: dose: 12.5 mg/kg/injection, schedule: Q01DX009 (ip), vehicle: Klucel (hydroxypropylcellulose) (HPC).
[9] abbreviates: dose: 25.0 mg/kg/injection, schedule: Q01DX009 (ip), vehicle: Klucel (hydroxypropylcellulose) (HPC).
[10] abbreviates: dose: 50.0 mg/kg/injection, schedule: Q01DX009 (ip), vehicle: Klucel (hydroxypropylcellulose) (HPC).
Setting [11] is: dose: 6.25 mg/kg/injection, schedule: Q01DX009 (ip), vehicle: saline.
Where [12] appears, read: dose: 12.5 mg/kg/injection, schedule: Q01DX009 (ip), vehicle: saline.
The mark [13] stands for this setting: dose: 25.0 mg/kg/injection, schedule: Q01DX009 (ip), vehicle: saline.
Where [14] appears, read: dose: 50.0 mg/kg/injection, schedule: Q01DX009 (ip), vehicle: saline.
Setting [15] is: dose: 100.0 mg/kg/injection, schedule: Q01DX009 (ip), vehicle: saline.
[16] abbreviates: dose: 200.0 mg/kg/injection, schedule: Q01DX009 (ip), vehicle: saline.
The mark [17] stands for this setting: dose: 400.0 mg/kg/injection, schedule: Q01DX009 (ip), vehicle: saline.
Setting [18] is: dose: 6.25 mg/kg/injection, schedule: Q01DX009 (ip), vehicle: saline with Tween-80.

Consider `CC(C)CC(NC(=O)CF)C(=O)O` (stereo not drawn), for which the T/C is, setting by setting: (dose: 0.31 mg/kg/injection, schedule: Q01DX009 (ip), vehicle: saline) 98 % of control; (dose: 0.63 mg/kg/injection, schedule: Q01DX009 (ip), vehicle: saline) 94 % of control; (dose: 1.25 mg/kg/injection, schedule: Q01DX009 (ip), vehicle: saline) 90 % of control; (dose: 2.5 mg/kg/injection, schedule: Q01DX009 (ip), vehicle: saline) 102 % of control; (dose: 5.0 mg/kg/injection, schedule: Q01DX009 (ip), vehicle: saline) 91 % of control.

`O=C(N/N=C\c1cc(Br)cc(Br)c1O)N/N=C/c1cc(Br)cc(Br)c1O`: the T/C is 91 % of control under setting [1]; 96 % of control under setting [2]; 98 % of control under setting [3]; 96 % of control under setting [4]; 98 % of control under setting [5]; 96 % of control under setting [6].

Consider `O=C1OC(c2ccc(O)cc2)(c2ccc(Oc3ccccc3)cc2)c2ccccc21` (stereo not drawn), for which the T/C was 105 % of control under setting [4], 112 % of control under setting [5] and 99 % of control under setting [6].

`CC(=O)OCC1OC(n2cc(CBr)nn2)C(OC(C)=O)C(OC(C)=O)C1OC(C)=O` (stereo not drawn): the T/C reads like this: (dose: 3.12 mg/kg/injection, schedule: Q01DX009 (ip), vehicle: Klucel (hydroxypropylcellulose) (HPC)) 87 % of control; under setting [7], 88 % of control; under setting [8], 102 % of control; under setting [9], 106 % of control; under setting [10], 96 % of control.

Turning to `COC(C(=O)C(O)C(C)O)C1CC2C=C3C=C(OC4CC(OC5CC(O)C(OC)C(C)O5)C(OC(C)=O)C(C)O4)C(C)C(=O)C3=C(O)C2=C(O)C1OC1CC(OC2CC(OC3CC(C)(O)C(O)C(C)O3)C(O)C(C)O2)C(O)C(C)O1` (stereo not drawn), the T/C was 96 % of control (dose: 0.06 mg/kg/injection, schedule: Q01DX009 (ip), vehicle: saline with Tween-80); 101 % of control (dose: 0.13 mg/kg/injection, schedule: Q01DX009 (ip), vehicle: saline with Tween-80); 114 % of control (dose: 0.25 mg/kg/injection, schedule: Q01DX009 (ip), vehicle: saline with Tween-80); 104 % of control (dose: 0.5 mg/kg/injection, schedule: Q01DX009 (ip), vehicle: saline with Tween-80); 101 % of control (dose: 1.0 mg/kg/injection, schedule: Q01DX009 (ip), vehicle: saline with Tween-80); 92 % of control (dose: 2.0 mg/kg/injection, schedule: Q01DX009 (ip), vehicle: saline with Tween-80).

Take `CCCCC(=O)OCC(=O)[C@]1(O)Cc2c(O)c3c(c(O)c2[C@@H](OC2CC(NC(=O)C(F)(F)F)C(O)C(C)O2)C1)C(=O)c1c(OC)cccc1C3=O` (stereo partly drawn): the T/C runs as follows: (dose: 4.0 mg/kg/injection, schedule: Q01DX009 (ip), vehicle: distilled water + Tween-80) 100 % of control; (dose: 8.0 mg/kg/injection, schedule: Q01DX009 (ip), vehicle: distilled water + Tween-80) 102 % of control; (dose: 16.0 mg/kg/injection, schedule: Q01DX009 (ip), vehicle: distilled water + Tween-80) 121 % of control.

As for `CC(=O)N(C)c1ccc(Nc2cc(C)[nH]c3ccc4ncnc4c23)cc1`, the T/C was 97 % of control under setting [11], 93 % of control under setting [12], 93 % of control under setting [13] and 117 % of control under setting [14].

With `OCCCN1CCCCC1CO` (stereo not drawn), the T/C under setting [12] was 100 % of control and 107 % of control; the T/C under setting [13] was 98 % of control and 110 % of control; the T/C under setting [14] was 97 % of control and 90 % of control; the T/C under setting [15] was 91 % of control and 106 % of control; the T/C under setting [16] was 100 % of control and 107 % of control; the T/C under setting [17] is 95 % of control and 110 % of control.

In the case of `CCC1OCC(C(Cl)CCl)O1` (stereo not drawn), the T/C (dose: 3.12 mg/kg/injection, schedule: Q01DX009 (ip), vehicle: saline with Tween-80) is 103 % of control; the T/C under setting [18] is 97 % of control; the T/C under setting [8] was 97 % of control; the T/C under setting [1] is 108 % of control; the T/C under setting [9] is 98 % of control; the T/C under setting [2] was 109 % of control. Further, the T/C was 97 % of control under setting [10]; 94 % of control under setting [3]; 96 % of control (dose: 100.0 mg/kg/injection, schedule: Q01DX009 (ip), vehicle: Klucel (hydroxypropylcellulose) (HPC)); 109 % of control under setting [4]; 97 % of control (dose: 200.0 mg/kg/injection, schedule: Q01DX009 (ip), vehicle: Klucel (hydroxypropylcellulose) (HPC)).

As for `CN1c2ccc3ccccc3c2Sc2ccc3ccccc3c21`, the T/C was 98 % of control under setting [4], 98 % of control under setting [5] and 111 % of control under setting [6].

Regarding `COC(=O)c1cc2cc3c(c(O)c2c(=O)o1)OC1(Cc2c(O)c4c(c(O)c2O1)C(=O)C(OC)CC4=O)CC3O` (stereo not drawn), the T/C is 102 % of control (dose: 3.13 mg/kg/injection, schedule: Q01DX009 (ip), vehicle: saline with Tween-80); 110 % of control under setting [18]; 122 % of control under setting [1]; 120 % of control under setting [2].

In the case of `CN1CCN(c2ccc3nc(-c4ccc5nc(-c6ccc(O)cc6)[nH]c5c4)[nH]c3c2)CC1`, the T/C is 95 % of control (dose: 6.0 mg/kg/injection, schedule: Q01DX009 (ip), vehicle: saline); 98 % of control (dose: 12.0 mg/kg/injection, schedule: Q01DX009 (ip), vehicle: saline); 120 % of control under setting [13]; 102 % of control under setting [14]; 100 % of control under setting [15].

For `COCCOC`, the T/C reads like this: under setting [15], 100 % of control; under setting [16], 102 % of control; under setting [17], 100 % of control.

With `Nc1nc2c(ncn2C2OC(CO)C(O)C2N)c(=O)[nH]1` (stereo not drawn), the T/C by setting is: (dose: 3.0 mg/kg/injection, schedule: Q01DX009 (ip), vehicle: saline with Tween-80) 101 % of control; (dose: 6.0 mg/kg/injection, schedule: Q01DX009 (ip), vehicle: saline with Tween-80) 110 % of control; (dose: 12.0 mg/kg/injection, schedule: Q01DX009 (ip), vehicle: saline with Tween-80) 108 % of control; (dose: 24.0 mg/kg/injection, schedule: Q01DX009 (ip), vehicle: saline with Tween-80) 99 % of control.

Consider `CC(CN1CC(=O)NC(=O)C1)N1CC(=O)NC(=O)C1` (stereo not drawn), for which the T/C reads like this: (dose: 64.8 mg/kg/injection, schedule: Q04DX003 (ip), vehicle: Klucel (hydroxypropylcellulose) (HPC)) 110 % of control and 112 % of control and 119 % of control; (dose: 108.0 mg/kg/injection, schedule: Q04DX003 (ip), vehicle: Klucel (hydroxypropylcellulose) (HPC)) 111 % of control and 114 % of control; (dose: 300.0 mg/kg/injection, schedule: Q04DX003 (ip), vehicle: Klucel (hydroxypropylcellulose) (HPC)) 154 % of control and 178 % of control.

As for `CN1CCN(CCCN2c3ccccc3Sc3ccc(C(F)(F)F)cc32)CC1`, the T/C (dose: 3.12 mg/kg/injection, schedule: Q01DX009 (ip), vehicle: saline) was 109 % of control; the T/C under setting [11] was 120 % of control; the T/C under setting [12] is 109 % of control.

With `O=[N+]([O-])c1ccc(-n2[nH]nnc2=S)cc1`, the T/C runs as follows: under setting [1], 92 % of control; under setting [2], 101 % of control; under setting [3], 92 % of control; under setting [4], 92 % of control; under setting [5], 93 % of control.

For `COc1cc2c[n+](C)c3c4cc5c(cc4ccc3c2cc1OC)OCO5` (tested in a mixture with another compound), the T/C was 103 % of control (dose: 3.13 mg/kg/injection, schedule: Q01DX009 (ip), vehicle: Klucel (hydroxypropylcellulose) (HPC)); 184 % of control under setting [7]; 120 % of control under setting [8]; 120 % of control under setting [9].
